The text below walks through data of article PMC7000521, “Hazard Characterization of Synthetic Cathinones Using Viability, Monoamine Reuptake, and Neuronal Activity Assays” (Frontiers in Neuroscience, 2020).

Like-named read-outs stand apart in the source and are kept apart here.

For series [1], the system named is rat primary cortical cultures. Put plainly: MEA recordings of spontaneous neuronal network activity. Type of series: cell-based. The settings on record: acute and prolonged exposure. How it is done: Rat pups born of timed-pregnant Wistar rats (Envigo, Horst, Netherlands) were sacrificed on postnatal day 0–1 to prepare cortical cultures grown on MEA plates as described previously ([Zwartsen et al., 2018], [2019]). Briefly, a 50 μL drop of cell suspension was added to each well (1 × 10^5 cells/well) of a 48-well MEA plate (Axion BioSystems Inc., Atlanta, GA, United States, M768-GL1-30Pt200) coated with 0.1% polyethyleneimine (PEI). After 2 h, 450 μL dissection medium was added to each well. The day after the isolation (day in vitro 1; DIV1), 450 μL/well dissection medium was replaced with 450 μL/well glutamate medium. At DIV4, 450 μL/well glutamate medium was replaced with 450 μL/well FBS medium (for medium supplements see [Zwartsen et al., 2018], [2019]). Cultures were kept in FBS medium at 37°C, 5% CO2/95% air atmosphere until use at DIV9-10.
Microelectrode array recordings were performed as described in [Zwartsen et al. (2019)]. In short, neuronal activity was measured using a Maestro 768-channel amplifier (Axion BioSystems Inc., Atlanta, GA, United States). Baseline spontaneous neuronal activity was recorded for 30 min at 37°C, after which wells were exposed to selected synthetic cathinones under sterile conditions. Next, neuronal activity was determined during a 30 min “acute exposure” recording. […] Next, exposure medium was replaced with fresh FBS medium and the plate was incubated for 19 h at 37°C, until the 30 min “washout” recording, i.e., 24 h after the start of the exposure.
Effects of 3-MMC, 4-MMC, 4-MEC, pentedrone, 3-MMCinternet, and 4-MECinternet were tested at 1–1000 μM (final concentration). At the day of exposure, stocks and dilutions were freshly made in NB-A FBS medium (for medium supplements see [Zwartsen et al., 2019]). Data on methylone, α-PVP, and MDPV exposure have been published previously in [Zwartsen et al. (2019)]. For each experimental condition, primary cultures from two to three different isolations were used and tested in four to five plates (Nplates). The number of wells (nwells) represents the number of replicates per condition.
Microelectrode array data were analyzed as described in [Zwartsen et al. (2019)]. In short, parameters of interest after acute exposure were expressed as a percentage of the parameters prior to exposure to obtain a treatment ratio for each well (paired comparison; parameterexposure/parameterbaseline as % of control wells). The parameters after prolonged exposure and washout were also expressed as a percentage of the baseline parameters. Next, treatment ratios were grouped per parameter, condition, drug [e.g., mean spike rate (MSR) 10 μM 3-MMC] and exposure scenario (acute, prolonged, or washout).
Outliers (>mean ± 2×SD) for MSR (5.0%) were used to exclude wells on all parameters. Outliers for mean burst rate (MBR; 2.6%) and mean network burst rate (MNBR; 1.4%) were used to exclude wells on specific parameters (burst, network burst, and synchronicity parameters, or network burst and synchronicity parameters, respectively). Finally, the acute, prolonged, and washout control treatment ratios were set to 100% and treatment ratios of exposed wells were normalized to the average treatment ratio of medium control wells of the corresponding parameter and exposure scenario. Treatment ratios of exposed wells were averaged per parameter (e.g., MSR), condition (e.g., 100 μM), drug (e.g., methylone), and exposure scenario (e.g., acute exposure) and used for further statistical analyses [see [Zwartsen et al. (2019)] for more details on criteria, parameters, and exposure scenarios]. Neuronal activity (as % of control) is expressed as mean ± SEM of nwells from Nplates. As the spike, burst, and network burst rates were among the most sensitive parameters, these parameters are presented in the manuscript. Additional parameters are presented in Supplementary Figure 2.
Concentration–response curves were made for transporter, MEA, and cell viability assays. […]

Series [2] can be described thus: Brain partitioning factor (BPF). The settings on record: brain concentration divided by blood/serum/plasma concentration from human post mortem reports or animal studies (rat/mice). The source says:
(§1) To correlate reported effect concentrations to expected concentrations in the human brain during recreational use a brain partitioning factor (BPF; […]) was applied, as actual human brain concentrations following recreational drug use are unknown. Expected concentrations in the human brain were estimated by multiplying recreational human blood/serum/plasma concentrations with the BPF. Human recreational blood, serum, or plasma levels were obtained from literature (driving under the influence or accidental non-fatal intoxications). The BPF was determined for each drug by dividing the brain concentration by the blood/serum/plasma concentration found in human post mortem reports, or animal studies (rat/mice) when human data were insufficient.

The nature of series [3]: Estimated human brain concentrations and comparison with IC50 values. The settings on record: recreational human blood/serum/plasma concentration multiplied with BPF.
Excerpt: as §1
To identify the relevance of effects and potentially harmful drugs, effect concentrations (IC50 values) were related to the estimated human brain concentration during recreational use [(brain), Table 2]. By comparing these concentrations, the most relevant neurotoxic mechanisms of cathinones can be identified. […] Only 4-MEC and MDPV inhibited neuronal activity during acute exposure at concentrations within (MDPV) or close to (4-MEC) the estimated brain concentration.

Series [4] has as its target T1, hDAT (Homo sapiens, UniProt Q01959).
T1 construct: expressed in transfected cells
On the set-up: method as in Zwartsen et al., 2017. The settings on record: read-out: Transporter inhibition IC50, hDAT; HEK 293 cells; value [CI]; reanalyzed from previously published data ref Zwartsen et al., 2017; cited from earlier work.

The subject of series [5] is rat primary cortical cultures. Set-up: method as in Zwartsen et al., 2019. To be noted: value [CI], published previously ref Zwartsen et al., 2019, cited from earlier work.
The conditions of series [6]: recreational use (driving under the influence or accidental non-fatal intoxications); ref literature; cited from earlier work.

T1 sequence (Q01959 whole entry): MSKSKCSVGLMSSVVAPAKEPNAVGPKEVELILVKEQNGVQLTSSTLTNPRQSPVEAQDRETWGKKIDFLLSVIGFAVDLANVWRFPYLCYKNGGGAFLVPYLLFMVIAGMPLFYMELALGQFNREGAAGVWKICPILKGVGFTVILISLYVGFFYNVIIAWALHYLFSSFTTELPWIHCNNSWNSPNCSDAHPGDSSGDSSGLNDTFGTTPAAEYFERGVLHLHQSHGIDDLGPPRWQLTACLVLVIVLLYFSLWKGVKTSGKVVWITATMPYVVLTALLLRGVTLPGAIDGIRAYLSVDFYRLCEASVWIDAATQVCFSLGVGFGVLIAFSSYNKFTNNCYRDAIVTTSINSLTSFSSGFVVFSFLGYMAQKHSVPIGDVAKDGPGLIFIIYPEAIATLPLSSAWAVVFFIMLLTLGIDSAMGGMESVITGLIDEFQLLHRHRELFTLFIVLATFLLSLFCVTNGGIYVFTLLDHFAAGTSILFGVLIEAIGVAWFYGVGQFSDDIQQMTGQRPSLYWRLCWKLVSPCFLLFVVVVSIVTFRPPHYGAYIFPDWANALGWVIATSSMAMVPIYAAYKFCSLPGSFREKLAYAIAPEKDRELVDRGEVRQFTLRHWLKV

`CCCC(C(=O)c1ccccc1)N1CCCC1` (stereo not drawn) [α-PVP, α-pyrrolidinovalerophenone]: the “Increased potency to inhibit neuronal activity (MSR, MBR, and MNBR) compared to cathinones lacking the lengthened alkyl chain” value in series [1] was “two to fourfold”. The “Brain partitioning factor (BPF)” value in series [2] is recorded as 0.1–1.8^4,8,9,10. Also, the “Estimated human (brain) concentration” value in series [3] is 0.001 to 5.0 µM. For the same compound, the IC50 (in general, the concentration needed to halve the response being measured) in series [4] was 0.2 µM; in series [5] (acute exposure 30 min, read-out: Neuronal activity IC50, mean burst rate (MBR), acute), 33 µM; in series [5] (acute exposure 30 min, read-out: Neuronal activity IC50, mean network burst rate (MNBR), acute), 33 µM; in series [5] (acute exposure 30 min, read-out: Neuronal activity IC50, mean spike rate (MSR), acute), 26 µM; in series [5] (washout, 24 h after start of exposure, read-out: Neuronal activity IC50, mean burst rate (MBR), recovery) it was more than 300 µM; in series [5] (washout, 24 h after start of exposure, read-out: Neuronal activity IC50, mean network burst rate (MNBR), recovery), more than 300 µM. Also, in series [5] (washout, 24 h after start of exposure, read-out: Neuronal activity IC50, mean spike rate (MSR), recovery), the IC50 is more than 300 µM. Moreover, the “Human (serum/blood/plasma) concentration” value in series [6] is given as 0.01–2.8^b,j,K μM.
